Holding throughout (experiment): biochemical
Common to all, as to parameters: KINOMEscan active site-directed competition binding assay (DiscoveRx), 456 kinases, per cent of control at 300 nM
Common to all, as to settings: read-out: Percent of Control (%)

In one test the target is CDK5 (Homo sapiens, UniProt Q00535). The procedure, abridged:
(§1)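 At 300 nmol/L, compounds were assessed for kinase binding in an active site-directed competition format covering 456 kinases.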

In the next test the target is CDKL1 (Homo sapiens, UniProt Q00532). In short, it runs like this: as §1
Chain of CDKL1 (Q00532 whole entry): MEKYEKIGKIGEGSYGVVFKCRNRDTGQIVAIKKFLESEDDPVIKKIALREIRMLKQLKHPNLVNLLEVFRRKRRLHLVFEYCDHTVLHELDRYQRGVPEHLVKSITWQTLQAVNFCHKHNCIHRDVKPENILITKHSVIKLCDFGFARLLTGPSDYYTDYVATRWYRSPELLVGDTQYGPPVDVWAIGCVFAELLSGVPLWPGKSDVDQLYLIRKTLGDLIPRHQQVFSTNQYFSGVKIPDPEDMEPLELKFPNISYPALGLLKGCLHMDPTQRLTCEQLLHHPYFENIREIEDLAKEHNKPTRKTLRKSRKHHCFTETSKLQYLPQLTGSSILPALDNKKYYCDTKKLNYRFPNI
In the next test the target is CDKL5 (Homo sapiens, UniProt O76039). In short, it runs like this: as §1
Chain of CDKL5 (O76039 whole entry): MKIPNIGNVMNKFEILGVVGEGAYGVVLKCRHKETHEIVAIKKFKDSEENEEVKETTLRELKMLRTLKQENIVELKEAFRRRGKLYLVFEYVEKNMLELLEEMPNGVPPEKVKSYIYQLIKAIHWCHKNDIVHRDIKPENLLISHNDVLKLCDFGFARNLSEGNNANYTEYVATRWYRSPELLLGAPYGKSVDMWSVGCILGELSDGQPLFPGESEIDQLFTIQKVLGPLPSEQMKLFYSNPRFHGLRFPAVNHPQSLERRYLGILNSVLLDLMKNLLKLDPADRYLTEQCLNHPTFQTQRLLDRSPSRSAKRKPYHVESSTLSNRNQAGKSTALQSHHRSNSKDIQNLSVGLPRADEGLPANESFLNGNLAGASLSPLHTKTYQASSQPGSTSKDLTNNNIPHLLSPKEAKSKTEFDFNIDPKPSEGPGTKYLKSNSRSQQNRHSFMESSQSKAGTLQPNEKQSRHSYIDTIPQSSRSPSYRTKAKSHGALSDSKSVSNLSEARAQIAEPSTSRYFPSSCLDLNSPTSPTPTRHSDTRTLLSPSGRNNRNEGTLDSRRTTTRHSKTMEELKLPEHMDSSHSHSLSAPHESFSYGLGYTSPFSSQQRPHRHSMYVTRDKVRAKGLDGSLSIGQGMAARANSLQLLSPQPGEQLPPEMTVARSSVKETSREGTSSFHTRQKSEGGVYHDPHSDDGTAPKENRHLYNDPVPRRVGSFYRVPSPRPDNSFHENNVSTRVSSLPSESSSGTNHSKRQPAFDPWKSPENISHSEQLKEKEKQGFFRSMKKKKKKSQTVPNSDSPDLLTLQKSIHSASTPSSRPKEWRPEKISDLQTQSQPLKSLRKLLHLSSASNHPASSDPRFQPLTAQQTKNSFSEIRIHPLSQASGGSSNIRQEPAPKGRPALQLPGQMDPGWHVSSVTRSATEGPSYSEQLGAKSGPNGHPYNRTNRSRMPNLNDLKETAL
The target of another test is T1, DRAK2 (Homo sapiens, UniProt O94768).
T1 construct: gene STK17B
The procedure, abridged: as §1

Another test has as its target EGFR(T790M) (Homo sapiens, UniProt P00533, T790M). In short, it runs like this: as §1
For another test, the target named is EPHA5 (Homo sapiens, UniProt P54756). In short, it runs like this: as §1
Another test has as its target T2, ERK2 (Homo sapiens, UniProt P28482).
T2 construct: gene MAPK1
In short, it runs like this:
as §1

In a further test the target is FGR (Homo sapiens, UniProt P09769). The procedure, abridged: as §1
The next test has as its target T3, MST4 (Homo sapiens, UniProt Q9P289).
T3 construct: gene STK26
In short, it runs like this: as §1

A further test concerns the target MYLK2 (Homo sapiens, UniProt Q9H1R3). The procedure, abridged: as §1
Another test concerns the target T4, NDR2 (Homo sapiens, UniProt Q9Y2H1).
T4 construct: gene STK38L
The procedure, abridged: as §1

Another test has as its target NEK11 (Homo sapiens, UniProt Q8NG66). The procedure, abridged: as §1
The next test has as its target PAK1 (Homo sapiens, UniProt Q13153). In short, it runs like this: as §1
A further test concerns the target PAK3 (Homo sapiens, UniProt O75914). The procedure, abridged:
as §1

The target in the next test is PAK6 (Homo sapiens, UniProt Q9NQU5). The procedure, abridged:
as §1

A further test addresses T5, PKAC-beta (Homo sapiens, UniProt P22694).
T5 construct: gene PRKACB
The procedure, abridged:
as §1

The target of another test is PLK2 (Homo sapiens, UniProt Q9NYY3). In short, it runs like this:
as §1

The target of another test is T6, S6K1 (Homo sapiens, UniProt P23443).
T6 construct: gene RPS6KB1
The procedure, abridged: as §1

For another test, the target named is SGK3 (Homo sapiens, UniProt Q96BR1). The procedure, abridged:
as §1

In a further test the target is T7, SgK110 (Homo sapiens, UniProt P0C264).
T7 construct: gene SBK3
The procedure, abridged:
as §1

In the next test the target is TGFBR1 (Homo sapiens, UniProt P36897). In short, it runs like this: as §1
Chain of TGFBR1 (P36897 whole entry): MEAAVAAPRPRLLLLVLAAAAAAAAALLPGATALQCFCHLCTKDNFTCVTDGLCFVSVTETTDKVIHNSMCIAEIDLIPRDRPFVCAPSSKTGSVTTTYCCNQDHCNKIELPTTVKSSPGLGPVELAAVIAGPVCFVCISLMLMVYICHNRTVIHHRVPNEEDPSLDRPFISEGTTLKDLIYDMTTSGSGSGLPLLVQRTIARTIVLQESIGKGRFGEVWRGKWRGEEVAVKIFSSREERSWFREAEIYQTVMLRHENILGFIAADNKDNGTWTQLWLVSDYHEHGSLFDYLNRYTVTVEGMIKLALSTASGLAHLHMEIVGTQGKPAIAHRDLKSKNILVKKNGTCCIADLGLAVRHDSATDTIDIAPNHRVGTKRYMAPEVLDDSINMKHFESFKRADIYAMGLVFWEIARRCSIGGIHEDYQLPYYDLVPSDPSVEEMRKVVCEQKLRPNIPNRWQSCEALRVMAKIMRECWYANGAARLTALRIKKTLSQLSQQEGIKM
Another test has as its target ZAP70 (Homo sapiens, UniProt P43403). In short, it runs like this: as §1

The structures appear in SMILES notation. Where two headings read alike, the source gives them in different places.

Chain of PAK6 (Q9NQU5 whole entry): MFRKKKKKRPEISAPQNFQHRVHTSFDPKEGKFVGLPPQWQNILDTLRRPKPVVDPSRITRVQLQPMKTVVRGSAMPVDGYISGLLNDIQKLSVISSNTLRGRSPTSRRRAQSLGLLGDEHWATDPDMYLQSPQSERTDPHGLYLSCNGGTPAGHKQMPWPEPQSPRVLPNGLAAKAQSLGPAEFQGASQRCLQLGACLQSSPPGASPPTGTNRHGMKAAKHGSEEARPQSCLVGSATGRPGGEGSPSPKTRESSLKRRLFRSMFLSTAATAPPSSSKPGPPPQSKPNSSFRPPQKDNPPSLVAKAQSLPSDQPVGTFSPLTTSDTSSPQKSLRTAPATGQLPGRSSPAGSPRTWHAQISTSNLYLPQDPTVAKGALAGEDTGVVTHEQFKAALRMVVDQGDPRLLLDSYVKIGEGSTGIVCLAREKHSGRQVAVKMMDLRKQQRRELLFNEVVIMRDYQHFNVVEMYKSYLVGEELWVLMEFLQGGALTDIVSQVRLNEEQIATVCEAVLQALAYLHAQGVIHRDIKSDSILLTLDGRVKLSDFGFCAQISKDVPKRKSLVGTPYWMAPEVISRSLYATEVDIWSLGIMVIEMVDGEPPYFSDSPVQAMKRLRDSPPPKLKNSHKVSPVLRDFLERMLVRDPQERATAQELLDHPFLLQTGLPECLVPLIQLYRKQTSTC
Chain of PAK3 (O75914 whole entry): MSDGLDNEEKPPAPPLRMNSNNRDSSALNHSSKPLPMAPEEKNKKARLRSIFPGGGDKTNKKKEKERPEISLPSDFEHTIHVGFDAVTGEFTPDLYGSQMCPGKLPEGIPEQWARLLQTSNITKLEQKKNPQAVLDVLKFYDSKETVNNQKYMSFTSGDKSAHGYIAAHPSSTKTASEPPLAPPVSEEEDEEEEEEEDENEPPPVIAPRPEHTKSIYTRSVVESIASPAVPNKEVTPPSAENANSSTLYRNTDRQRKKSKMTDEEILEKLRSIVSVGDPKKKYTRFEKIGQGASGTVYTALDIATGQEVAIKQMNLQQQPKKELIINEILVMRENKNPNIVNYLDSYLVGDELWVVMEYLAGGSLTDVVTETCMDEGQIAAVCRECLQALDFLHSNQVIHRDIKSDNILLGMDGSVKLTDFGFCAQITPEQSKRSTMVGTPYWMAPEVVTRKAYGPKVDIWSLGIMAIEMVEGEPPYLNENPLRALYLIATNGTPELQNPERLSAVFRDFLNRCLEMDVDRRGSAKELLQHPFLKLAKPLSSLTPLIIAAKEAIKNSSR
Chain of ZAP70 (P43403 whole entry): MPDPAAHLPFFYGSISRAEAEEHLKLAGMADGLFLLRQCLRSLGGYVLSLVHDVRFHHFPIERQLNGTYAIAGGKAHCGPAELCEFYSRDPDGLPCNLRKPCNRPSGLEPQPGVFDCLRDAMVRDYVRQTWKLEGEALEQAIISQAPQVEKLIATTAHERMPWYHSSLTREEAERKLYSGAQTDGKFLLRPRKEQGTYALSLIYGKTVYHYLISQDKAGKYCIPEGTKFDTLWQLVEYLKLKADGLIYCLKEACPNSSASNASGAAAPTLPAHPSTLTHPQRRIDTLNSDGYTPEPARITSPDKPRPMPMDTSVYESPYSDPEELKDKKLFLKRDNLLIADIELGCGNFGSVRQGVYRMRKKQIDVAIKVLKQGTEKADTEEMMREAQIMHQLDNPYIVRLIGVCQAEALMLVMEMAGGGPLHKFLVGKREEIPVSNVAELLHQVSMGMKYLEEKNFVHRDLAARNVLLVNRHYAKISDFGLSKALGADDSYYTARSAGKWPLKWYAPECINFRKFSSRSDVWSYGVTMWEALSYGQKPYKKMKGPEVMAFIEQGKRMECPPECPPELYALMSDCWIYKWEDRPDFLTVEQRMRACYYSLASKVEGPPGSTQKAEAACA
Chain of PAK1 (Q13153 whole entry): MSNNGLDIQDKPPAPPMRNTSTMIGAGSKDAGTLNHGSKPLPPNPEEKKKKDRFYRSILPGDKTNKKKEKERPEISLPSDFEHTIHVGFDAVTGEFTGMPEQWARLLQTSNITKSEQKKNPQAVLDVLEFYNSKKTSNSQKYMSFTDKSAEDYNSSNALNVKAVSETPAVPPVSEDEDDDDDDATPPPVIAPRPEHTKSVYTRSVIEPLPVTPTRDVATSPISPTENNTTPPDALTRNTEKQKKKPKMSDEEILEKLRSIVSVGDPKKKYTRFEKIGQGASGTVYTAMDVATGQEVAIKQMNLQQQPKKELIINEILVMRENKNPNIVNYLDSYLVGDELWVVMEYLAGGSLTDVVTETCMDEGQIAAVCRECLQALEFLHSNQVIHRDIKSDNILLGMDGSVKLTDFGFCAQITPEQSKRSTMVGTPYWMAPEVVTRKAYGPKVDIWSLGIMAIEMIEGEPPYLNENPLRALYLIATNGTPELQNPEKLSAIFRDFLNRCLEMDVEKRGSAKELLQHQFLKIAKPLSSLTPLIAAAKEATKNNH
T4 sequence (Q9Y2H1 whole entry): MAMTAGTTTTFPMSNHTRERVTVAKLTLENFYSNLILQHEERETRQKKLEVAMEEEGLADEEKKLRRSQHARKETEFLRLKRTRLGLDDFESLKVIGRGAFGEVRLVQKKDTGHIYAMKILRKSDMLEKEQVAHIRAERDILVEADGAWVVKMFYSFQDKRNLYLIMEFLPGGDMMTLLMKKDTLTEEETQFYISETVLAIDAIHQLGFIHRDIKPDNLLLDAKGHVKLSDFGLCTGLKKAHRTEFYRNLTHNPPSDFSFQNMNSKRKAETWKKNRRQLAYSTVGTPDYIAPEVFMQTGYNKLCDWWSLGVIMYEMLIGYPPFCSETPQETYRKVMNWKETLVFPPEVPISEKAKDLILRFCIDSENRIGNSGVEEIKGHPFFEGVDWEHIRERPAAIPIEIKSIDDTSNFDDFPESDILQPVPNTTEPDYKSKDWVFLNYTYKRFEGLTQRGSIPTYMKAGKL
Chain of CDK5 (Q00535 whole entry): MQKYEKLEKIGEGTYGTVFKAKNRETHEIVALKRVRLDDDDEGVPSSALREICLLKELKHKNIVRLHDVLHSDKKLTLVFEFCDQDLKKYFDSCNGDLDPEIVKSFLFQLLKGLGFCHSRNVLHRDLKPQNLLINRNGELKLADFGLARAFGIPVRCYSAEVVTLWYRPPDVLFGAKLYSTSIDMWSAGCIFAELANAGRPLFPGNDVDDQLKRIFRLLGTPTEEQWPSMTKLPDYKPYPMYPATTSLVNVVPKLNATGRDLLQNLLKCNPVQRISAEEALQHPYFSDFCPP

Regarding `O=C(/C=C/c1cnccc1-c1ccc(F)cc1)Nc1ccc(CCc2nnco2)cc1` [T-418, (2E)-3-(4-(4-fluorophenyl)pyridin-3-yl)-N-(4-(2-(1,3,4-oxadiazol-2-yl)ethyl)phenyl)acrylamide], the remaining binding at 0.3 µM was 80% on CDK5 (sheet T-418); 88% at CDKL1 (sheet T-418); 88% at CDKL5 (sheet T-418); 94% on DRAK2 (sheet T-418); 95% at EGFR(T790M) (sheet T-418); 96% on EPHA5 (sheet T-418). Moreover, the remaining binding at 0.3 µM stood at 79% at ERK2 (sheet T-418); 93% on FGR (sheet T-418); 63% on MST4 (sheet T-418); 62% at MYLK2 (sheet T-418); 100% on NDR2 (sheet T-418); 100% on NEK11 (sheet T-418). Moreover, the remaining binding at 0.3 µM amounted to 76% on PAK1 (sheet T-418); 93% at PAK3 (sheet T-418); 85% at PAK6 (sheet T-418); 88% at PKAC-beta (sheet T-418); 57% on PLK2 (sheet T-418); 100% at S6K1 (sheet T-418). For the same compound, the remaining binding at 0.3 µM on SGK3 (sheet T-418) was determined as 62%; at SgK110 (sheet T-418), 73%; on TGFBR1 (sheet T-418), 94%; on ZAP70 (sheet T-418), 86%.
As to `Cc1ncccc1Oc1sc(C(N)=O)c2c1-c1c(cnn1C)CC2` [T-474, 1-methyl-8-((2-methylpyridin-3-yl)oxy)-4,5-dihydro-1H-thieno[3,4-g]indazole-6-carboxamide], the remaining binding at 0.3 µM on CDK5 turned out to be 94%; at CDKL1 it was 76%; on CDKL5, 100%; at DRAK2, 100%; on EGFR(T790M), 100%; on EPHA5 it was 98%. The remaining binding at 0.3 µM on ERK2 was 85%; on FGR, 100%; on MST4 it was 64%; at MYLK2, 92%; on NDR2 it was 100%; on NEK11 it was 100%. Moreover, the remaining binding at 0.3 µM at PAK1 was 94%; at PAK3, 100%; on PAK6, 89%; at PKAC-beta, 100%; at PLK2, 67%; at S6K1, 100%. Further, the remaining binding at 0.3 µM at SGK3 was found to be 61%; on SgK110 it was 57%; on TGFBR1, 81%; at ZAP70, 100%.

Values taken from PMC5862592, “CDK8/19 inhibition induces premature G1/S transition and ATR-dependent cell death in prostate cancer cells” (Oncotarget, 2018).
